Reference: patent US9957236B2, “Selective inhibitors interfering with fibroblast growth factor receptor and FRS2 interaction for the prevention and treatment of cancer and other diseases” (LIMITED LIABILITY COMPANY “RUSSIAN PHARMACEUTICAL …, priority 2014, dated 2018)

Assays:
FGFR1 = target: T1, FGFR1 (Homo sapiens, UniProt P11362); experiment: FGFR1 phosphorylation in breast cancer cells MDA MB 134; type: cell-based; settings: MDA MB 134 cells
T1 construct: endogenous in cells; host or cells: HUVEC, Caki-1, KATO III
T1 sequence (P11362 22-822): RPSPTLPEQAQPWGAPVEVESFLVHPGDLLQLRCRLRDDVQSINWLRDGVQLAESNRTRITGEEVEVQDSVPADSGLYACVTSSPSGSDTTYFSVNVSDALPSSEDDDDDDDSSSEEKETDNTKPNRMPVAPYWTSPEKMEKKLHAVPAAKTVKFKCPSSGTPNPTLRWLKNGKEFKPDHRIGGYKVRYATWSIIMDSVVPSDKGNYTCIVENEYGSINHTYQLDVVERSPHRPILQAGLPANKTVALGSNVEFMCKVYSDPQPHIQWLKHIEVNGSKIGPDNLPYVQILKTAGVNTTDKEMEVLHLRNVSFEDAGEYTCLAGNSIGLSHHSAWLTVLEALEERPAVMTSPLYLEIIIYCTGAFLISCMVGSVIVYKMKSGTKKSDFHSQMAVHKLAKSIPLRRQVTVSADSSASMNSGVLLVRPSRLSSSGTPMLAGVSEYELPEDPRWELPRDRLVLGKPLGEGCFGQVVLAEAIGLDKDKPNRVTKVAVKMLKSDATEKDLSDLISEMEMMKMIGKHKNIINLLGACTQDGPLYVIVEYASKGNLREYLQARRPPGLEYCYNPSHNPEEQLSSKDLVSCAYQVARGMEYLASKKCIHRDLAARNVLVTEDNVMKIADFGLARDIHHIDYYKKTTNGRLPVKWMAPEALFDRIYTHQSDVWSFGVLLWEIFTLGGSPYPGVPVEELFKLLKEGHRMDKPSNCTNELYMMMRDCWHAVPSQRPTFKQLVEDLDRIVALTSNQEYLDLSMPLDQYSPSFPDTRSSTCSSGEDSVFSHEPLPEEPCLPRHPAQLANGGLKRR
Excerpt: The purpose of this research was assessment of specific action of inhibitor RPT835 specified in this invention with formula II, on interaction of […] and FRS2 and assessment of influence on interaction of other types of FGFR and FRS2. For the experiment, 2 cell lines were selected: • stomach cancer KATO III, expressing FGFR2, and • breast cancer MDA MB 134, expressing FGFR1.
The research procedure was the same as in the previous examples: the cells were cultivated in presence of RPT835 followed by stimulation with FGF-2 and heparin. The other part of the cells was cultivated in presence of RPT835. Phosphorylation of FGFR1 (in breast cancer cells) and FGFR2 (in stomach cancer cells), and also FRS2a (in the both cell lines) and some intracellular kinases (in breast cancer cells) was assessed using manual and automated Western blotting.

[1] = system: SKOV3 ovarian cancer cells; experiment: Crystal Violet proliferation assay, SKOV3; type: cell-based; settings: SKOV3, low FGFR2 expression; bFGF 100 ng/ml, 7 days
Excerpt: This research used additional cell lines: SKOV3 (ovarian cancer, ATCC # HTB-77), HS578T (breast cancer, ATCC # HTB-126), T47D (breast cancer, ATCC #HTB-1336), modified line of non-small cells lung cancer A549, line of metastatic melanoma of skin Mel Kor (RF Patent No. 2287578), and additional study of antiangiogenic activity—cell line SVEC-4-10 (endothelial cells, ATCC #CRL-2181).
The cells were cultivated in environment RPMI-1640 (PANECO) (SKOV3, HS578T, T47D, Mel-Kor) or DMEM (PANECO) (SVEC-4-10) containing 10% of embryonal serum cattle (FCS, HyClone), 2 mM glutamine (PANECO), antibiotics (100 IU/mL penicillin and […] streptomycin (all PANECO)) at 37° C. and 5% CO2. Cells at 70-80% monolayer were used for the experiments.
The cells were planted in low density (30 t of cells/ml) in triplets on a 96-cavity plate in an environment containing 0.1% of FCS serum. […] Growth of cells was determined by the modified “Crystal Violet mitogenic method” for 7 days after the experiment start. […] The dye was dissolved in ethanol and measured on a spectrophotometer at 540-560 nm. The curve of cell proliferative activity inhibition was built by the dependence of the percent of the cell quantity (Y axis) on concentration of inhibitor RPT835 in the cavity of the plate (X axis). […]

[2] = system: triple negative breast cancer HS578T; experiment: Tumor growth of HS578T xenograft in nude mice; type: in vivo; settings: for Slowdown of tumor growth: 30 mg/kg daily; for average size of tumor: 30 mg/kg daily through a stomach tube
Protocol: Females of immunodeficient mice (nude) at the age of 8 weeks were administered 2×10^6 tumor cells of human cell lines with various expression of FGFR2: • cell line of triple-negative breast cancer SUM52PE strongly expressing FGFR2 (purchased from Asterand, Inc. (Detroit, Mich.) • cell line of triple negative breast cancer HS578T weakly expressing FGFR2 (purchased from ATCC (CRL-125) • cell line of non-small cell lung cancer NCI-H226 not expressing FGFR2 (purchased from ATCC (CRL-5826)
After the tumor growth got established (1 mm^3), the mice were divided into control and treatment groups in accordance with the tumor type.
Control group 2 (N=10): HS578T, administration of water through a stomach tube, daily.
Treatment group 2 (N=10): HS578T, administration of inhibitor RPT835 through a stomach tube in a dose of 30 mg/kg, daily.
Size of tumor and weight of animals were measured every 3 day. The mice underwent euthanasia when the tumor reached the size of 2,000 mm^3 or on the 60 day of the experiment.

[3] = system: human ovarian cancer SKOV-3; experiment: Pathomorphosis of SKOV-3 ovarian tumor in nude mice; type: in vivo; settings: SKOV-3 in nude mice
Protocol: Immunodefficient mice (Nude, age of the mice as of the treatment start is 8 weeks; nursery “Pushchino”) were subcutaneously inoculated cells of FGFR2 of expressing line of human ovarian cancer SKOV-3. When the average tumor volume of 200 mm3 was achieved, the mice were randomized into the groups of control (standard chemotherapy with paclitaxel and caroplatin) and treatment (inhibitor RPT835). There were 10 mice in each group. Inhibitor RPT835 was assigned in a dose of 50 mg/kg, daily. The tumor volume was measured twice a week. When the tumor volume reached 2,000 mm3, the mice were subjected to euthanasia. Pathomorphosis of the tumor tissue was studied.

## Cc1cc([N+](=O)[O-])c(NS(=O)(=O)c2cccc(C(=O)O)c2)cc1-c1cccnc1 [RPT835, 3-(N-(4-methyl-2-nitro-5-(pyridin-3-yl)phenyl)sulfamoyl)benzoic acid]
FGFR1
  phosphorylation of FGFR1: did not have influence
[1]
  inhibition of proliferative activity: moderate effect
[2]; 31st day
  Slowdown of tumor growth: 33.2%
  average size of tumor: 703±89.1 mm3
[2]; 40th day
  Slowdown of tumor growth: 30.6%
[2]; 40th day, P=0.01
  average size of tumor: 1,104±162.2 mm3
[3]; 50 mg/kg daily
  part of the tumor represented by massive necroses: over 75%
[3]; RPT835 50 mg/kg daily, control standard chemotherapy with paclitaxel and caroplatin
  pathomorphosis of the tumor tissue: Pronounced therapeutic pathomorphosis
